Experimental data taken from ChEMBL document CHEMBL2440076, “New triarylpyrazoles as broad-spectrum anticancer agents: design, synthesis, and biological evaluation” (Eur J Med Chem, 2013).

What was measured:
Type in all cases: functional
SNB-75 = test: Growth inhibition of human SNB75 cells assessed as cell growth at 3X10'-7 M after 48 hrs by sulforhodamine B assay; details: SNB-75, 48 h, read-out: Activity
T47D = test: Growth inhibition of human T47D cells assessed as cell growth at 3X10'-7 M after 48 hrs by sulforhodamine B assay; details: read-out: Activity
SF-295 [1] = test: Growth inhibition of human SF295 cells assessed as cell growth at 3X10'-6 M after 48 hrs by sulforhodamine B assay; details: SF-295, 48 h, read-out: Activity
RXF 393 = test: Growth inhibition of human RXF393 cells assessed as cell growth at 3X10'-6 M after 48 hrs by sulforhodamine B assay; details: RXF 393, 48 h, read-out: Activity
NCI-H226 = test: Growth inhibition of human NCI-H226 cells assessed as cell growth at 3X10'-8 M after 48 hrs by sulforhodamine B assay; details: NCI-H226, 48 h, read-out: Activity
ACHN = test: Growth inhibition of human ACHN cells assessed as cell growth at 3X10'-9 M after 48 hrs by sulforhodamine B assay; details: read-out: Activity
TK-10 = test: Growth inhibition of human TK10 cells assessed as cell growth at 3X10'-6 M after 48 hrs by sulforhodamine B assay; details: TK-10, 48 h, read-out: Activity
SW-620 = test: Growth inhibition of human SW620 cells assessed as cell growth at 3X10'-5 M after 48 hrs by sulforhodamine B assay; details: SW-620, 48 h, read-out: Activity
NCI-H460 [2] = test: Growth inhibition of human NCI-H460 cells assessed as cell growth at 3X10'-5 M after 48 hrs by sulforhodamine B assay; details: NCI-H460, 48 h, read-out: Activity
NCI-H322M = test: Growth inhibition of human NCI-H322M cells assessed as cell growth at 3X10'-6 M after 48 hrs by sulforhodamine B assay; details: read-out: Activity
SF-295 [3] = test: Growth inhibition of human SF295 cells assessed as cell growth at 3X10'-8 M after 48 hrs by sulforhodamine B assay; details: SF-295, 48 h, read-out: Activity
UO-31 [4] = test: Growth inhibition of human UO31 cells assessed as cell growth at 3X10'-7 M after 48 hrs by sulforhodamine B assay; details: UO-31, 48 h, read-out: Activity
OVCAR-8 [5] = test: Growth inhibition of human OVCAR8 cells assessed as cell growth at 3X10'-7 M after 48 hrs by sulforhodamine B assay; details: OVCAR-8, 48 h, read-out: Activity
NCI-H23 = test: Growth inhibition of human NCI-H23 cells assessed as cell growth at 3X10'-9 M after 48 hrs by sulforhodamine B assay; details: NCI-H23, 48 h, read-out: Activity
COLO 205 = test: Growth inhibition of human COLO205 cells assessed as cell growth at 3X10'-9 M after 48 hrs by sulforhodamine B assay; details: COLO 205, 48 h, read-out: Activity
NCI-H460 [6] = test: Growth inhibition of human NCI-H460 cells assessed as cell growth at 3X10'-6 M after 48 hrs by sulforhodamine B assay; details: NCI-H460, 48 h, read-out: Activity
K562 = test: Growth inhibition of human K562 cells assessed as cell growth at 3X10'-5 M after 48 hrs by sulforhodamine B assay; details: K562, 48 h, read-out: Activity
HL-60(TB) = test: Growth inhibition of human HL-60(TB) cells assessed as cell growth at 3X10'-7 M after 48 hrs by sulforhodamine B assay; details: HL-60, 48 h, read-out: Activity
UACC-257 = test: Growth inhibition of human UACC257 cells assessed as cell growth at 3X10'-5 M after 48 hrs by sulforhodamine B assay; details: UACC-257, 48 h, read-out: Activity
OVCAR-5 = test: Growth inhibition of human OVCAR5 cells assessed as cell growth at 3X10'-9 M after 48 hrs by sulforhodamine B assay; details: OVCAR-5, 48 h, read-out: Activity
MOLT-4 = test: Growth inhibition of human MOLT4 cells assessed as cell growth at 3X10'-5 M after 48 hrs by sulforhodamine B assay; details: MOLT-4, 48 h, read-out: Activity
RPMI-8226 = test: Growth inhibition of human RPMI8226 cells assessed as cell growth at 3X10'-7 M after 48 hrs by sulforhodamine B assay; details: RPMI-8226, 48 h, read-out: Activity
SK-MEL-2 = test: Growth inhibition of human SK-MEL-2 cells assessed as cell growth at 3X10'-6 M after 48 hrs by sulforhodamine B assay; details: SK-MEL-2, 48 h, read-out: Activity
SK-OV-3 = test: Growth inhibition of human SKOV3 cells assessed as cell growth at 3X10'-9 M after 48 hrs by sulforhodamine B assay; details: SK-OV-3, 48 h, read-out: Activity
SK-MEL-5 = test: Growth inhibition of human SK-MEL-5 cells assessed as cell growth at 3X10'-5 M after 48 hrs by sulforhodamine B assay; details: SK-MEL-5, 48 h, read-out: Activity
OVCAR-8 [7] = test: Growth inhibition of human OVCAR8 cells assessed as cell growth at 3X10'-5 M after 48 hrs by sulforhodamine B assay; details: OVCAR-8, 48 h, read-out: Activity
MDA-MB-231 = test: Growth inhibition of human MDA-MB-231 cells assessed as cell growth at 3X10'-5 M after 48 hrs by sulforhodamine B assay; details: MDA-MB-231, 48 h, read-out: Activity
NCI-H522 = test: Growth inhibition of human NCI-H522 cells assessed as cell growth at 3X10'-9 M after 48 hrs by sulforhodamine B assay; details: NCI-H522, 48 h, read-out: Activity
HOP-62 = test: Growth inhibition of human HOP62 cells assessed as cell growth at 3X10'-5 M after 48 hrs by sulforhodamine B assay; details: HOP-62, 48 h, read-out: Activity
SF-268 = test: Growth inhibition of human SF268 cells assessed as cell growth at 3X10'-6 M after 48 hrs by sulforhodamine B assay; details: SF-268, 48 h, read-out: Activity
HCT-15 = test: Growth inhibition of human HCT15 cells assessed as cell growth at 3X10'-5 M after 48 hrs by sulforhodamine B assay; details: HCT-15, 48 h, read-out: Activity
UACC-62 = test: Growth inhibition of human UACC62 cells assessed as cell growth at 3X10'-8 M after 48 hrs by sulforhodamine B assay; details: UACC-62, 48 h, read-out: Activity
SK-MEL-28 = test: Growth inhibition of human SK-MEL-28 cells assessed as cell growth at 3X10'-7 M after 48 hrs by sulforhodamine B assay; details: SK-MEL-28, 48 h, read-out: Activity
UO-31 [8] = test: Growth inhibition of human UO31 cells assessed as cell growth at 5X10'-6 M after 48 hrs by sulforhodamine B assay; details: UO-31, 48 h, read-out: Activity
OVCAR-4 = test: Growth inhibition of human OVCAR4 cells assessed as cell growth at 5X10'-6 M after 48 hrs by sulforhodamine B assay; details: OVCAR-4, 48 h, read-out: Activity

Structure (SMILES)	growth at 0.3 µM (SNB-75) [%]	growth at 0.3 µM (T47D) [%]	growth at 3 µM (RXF 393) [%]	growth at 0.03 µM (NCI-H226) [%]	growth at 0.003 µM (ACHN) [%]	growth at 3 µM (TK-10) [%]	growth at 30 µM (SW-620) [%]	growth at 30 µM (NCI-H460 [2]) [%]	growth at 3 µM (NCI-H322M) [%]	growth at 0.3 µM (UO-31 [4]) [%]	growth at 0.3 µM (OVCAR-8 [5]) [%]	growth at 0.003 µM (NCI-H23) [%]	growth at 0.003 µM (COLO 205) [%]	growth at 3 µM (NCI-H460 [6]) [%]	growth at 30 µM (K562) [%]	growth at 30 µM (UACC-257) [%]	growth at 0.003 µM (OVCAR-5) [%]	growth at 30 µM (MOLT-4) [%]	growth at 0.3 µM (RPMI-8226) [%]	growth at 3 µM (SK-MEL-2) [%]	further results
COc1cc(-c2nn(-c3cccc(NC(=O)c4ccc(Cl)c(C(F)(F)F)c4)c3)cc2-c2ccncc2)ccc1Cl	77	92	36	92	99	74	24	7	73	47	93	93	101	51	11	32	96	24	94	36	growth at 3 µM (SF-295 [1]): 27%; growth at 0.03 µM (SF-295 [3]): 94%; growth at 0.3 µM (HL-60(TB)): 116%; growth at 0.003 µM (SK-OV-3): 100%; growth at 30 µM (SK-MEL-5): -51%; growth at 30 µM (OVCAR-8 [7]): 15%; growth at 30 µM (MDA-MB-231): 3%; growth at 0.003 µM (NCI-H522): 89%; growth at 30 µM (HOP-62): 35%; growth at 3 µM (SF-268): 56%; growth at 30 µM (HCT-15): 25%; growth at 0.03 µM (UACC-62): 99%; growth at 0.3 µM (SK-MEL-28): 95%
O=C(Nc1cccc(-n2cc(-c3ccncc3)c(-c3ccc(Cl)c(O)c3)n2)c1)Nc1ccc(Cl)c(Cl)c1	83	100	16	97	103	31	1	-58	47	93	95	90	100	2	4	-24	96	6	90	-11	growth at 0.003 µM (SK-OV-3): 96%; growth at 30 µM (SK-MEL-5): -95%; growth at 30 µM (OVCAR-8 [7]): 7%; growth at 30 µM (MDA-MB-231): -22%; growth at 0.003 µM (NCI-H522): 96%; growth at 30 µM (HOP-62): -13%; growth at 3 µM (SF-268): 23%; growth at 30 µM (HCT-15): -1%; growth at 0.03 µM (UACC-62): 102%; growth at 0.3 µM (SK-MEL-28): 97%
O=C(Nc1cccc(-n2cc(-c3ccncc3)c(-c3ccc(Cl)c(O)c3)n2)c1)Nc1cccc(C(F)(F)F)c1	85	97	49	100	103	37	8	-1	63	90	91	94	101	16	6	-18	95	8	90	35	growth at 3 µM (SF-295 [1]): 7%; growth at 0.03 µM (SF-295 [3]): 99%; growth at 0.003 µM (SK-OV-3): 98%; growth at 30 µM (SK-MEL-5): -90%; growth at 30 µM (OVCAR-8 [7]): 7%; growth at 30 µM (MDA-MB-231): -5%; growth at 0.003 µM (NCI-H522): 95%; growth at 30 µM (HOP-62): 9%; growth at 3 µM (SF-268): 37%; growth at 30 µM (HCT-15): 6%; growth at 0.03 µM (UACC-62): 96%; growth at 0.3 µM (SK-MEL-28): 101%
O=C(Nc1cccc(-n2cc(-c3ccncc3)c(-c3ccc(Cl)c(O)c3)n2)c1)Nc1ccc(Cl)c(C(F)(F)F)c1	74	95	-28	86	97	24	-43	-41	9	82	89	97	105	4	1	-90	93	-32	73	-41	growth at 3 µM (SF-295 [1]): -22%; growth at 0.03 µM (SF-295 [3]): 92%; growth at 0.3 µM (HL-60(TB)): 138%; growth at 0.003 µM (SK-OV-3): 102%; growth at 30 µM (SK-MEL-5): -97%; growth at 30 µM (OVCAR-8 [7]): -14%; growth at 30 µM (MDA-MB-231): -60%; growth at 0.003 µM (NCI-H522): 96%; growth at 30 µM (HOP-62): -17%; growth at 3 µM (SF-268): 10%; growth at 30 µM (HCT-15): -2%; growth at 0.03 µM (UACC-62): 95%; growth at 0.3 µM (SK-MEL-28): 95%
O=C(Nc1cccc(-n2cc(-c3ccncc3)c(-c3ccc(Cl)c(O)c3)n2)c1)Nc1cc(C(F)(F)F)cc(C(F)(F)F)c1																					growth at 5 µM (UO-31 [8]): -45%
O=C(Nc1cccc(-n2cc(-c3ccncc3)c(-c3ccc(Cl)c(O)c3)n2)c1)c1ccc(N2CCOCC2)c(C(F)(F)F)c1																					growth at 5 µM (UO-31 [8]): 25%; growth at 5 µM (OVCAR-4): 80%
